# Reference: PMC9299640, “Incorporation of β‐Alanine in Cu(II) ATCUN Peptide Complexes Increases ROS Levels, DNA Cleavage and Antiproliferative Activity” (Chemistry (Weinheim an Der Bergstrasse, Germany), 2021)
# Tests used:
# [1] = Detection of hydroxyl radicals (TPA) and hydrogen peroxide (PBSF) by fluorescence spectroscopy; format: biochemical; conditions: 40 μM complex or CuCl2, ascH− 1 mM, MOPS 50 mM pH 7.4, TPA 0.5 mM or PBSF 25 μM, up to 3.5 h, r.t.
# Description: To similarly confirm increased DNA cleavage as a result of enhanced ROS formation when introducing β‐Ala2 in the ATCUN motif, the ^•OH and H2O2 production was monitored. To follow the evolution of these species, the oxidation of terephthalate (TPA → HO‐TPA) by ^•OH[40] and the perhydrolysis of pentafluorobenzenesulfonyl fluorescein (PBSF) into fluorescein by H2O2 [40] were analyzed by fluorescence spectroscopy. In Figure 5, the kinetics of ^•OH and H2O2 production by complexes 1 (Gly2), 3 (β‐Ala2), 4 (β‐Ala2; Lys1/4) and CuCl2 are depicted.
# Figure 5 Kinetics of ^•OH (left) and H2O2 (right) production for 1, 3, 4 and CuCl2 (40 μM) in the presence of ascH^− (1 mM) in MOPS buffer (50 mM, pH 7.4) monitored by fluorescence evolution of HO‐TPA (λ ex 320 nm, λ em=428 nm) from TPA (0.5 mM), and fluorescein (λ ex=485 nm, λ em=513 nm) from PBSF (25 μM).
# S-8 Detection of hydroxyl radicals and hydrogen peroxide
# For the identification of generated ROS by Cu(II) ATCUN complexes during DNA cleavage, gel electrophoresis was used for a ROS quenching experiment (Figure 4). Detection of hydroxyl radicals and hydrogen peroxide generated by metallonucleases was additionally performed by fluorescence spectroscopy.
# The fluorescent dyes disodium terephthalate (TPA) and pentafluorobenzenesulfonyl fluorescein (PBSF) were used for the detection of hydroxyl radicals and hydrogen peroxide, respectively. […]
# HCT116 cells = experiment: Cellular uptake of Cu by ICP-MS; format: cell-based, human; conditions: 70 µM, 24 h, 37 °C, 5% CO2, 4 × 10^5 cells/well, HNO3 lysis, corrected for cell-free wells, n = 3
# Description: We aimed to correlate the antiproliferative activity to the accumulation of Cu in HCT116 cells. Therefore, cells were treated for 24 h with complexes Cu−GGH, 1, 3, 4 and CuCl2 (70 μM), and the Cu content of the samples was determined by ICP‐MS (Table S13). […] The higher Cu contents probably lead to enhanced oxidative stress levels in cells, which consequently results in higher antiproliferative activity.
# The antiproliferative activity of selected Cu(II) ATCUN complexes was investigated towards different tumor cell lines (HCT116, NCI-H460, SiHa and SW480 cells) and expressed as the IC50 values. Additionally, cellular uptake studies in HCT116 tumor cells were carried out and the amount of Cu was determined with inductively coupled plasma mass spectrometry (ICP-MS).
# Table S13. […]
# with 0.4% sulforhodamine B (Sigma-Aldrich) in 1% acetic acid for 30 min in the dark at room temperature and then washed with 1% acetic acid to remove unbound dye. The stain was dissolved in unbuffered Tris base (10 mM, Serva) for 30 min on a plate shaker in the dark and quantified on a BioTek EL808 microplate reader at an absorbance of 490 nm with a reference wavelength of 450 nm to determine the percentage of cell-growth inhibition by determining the absorbance of each sample relative to a negative (no inhibitor) and a no-growth control (day 0). […]
structure (smiles),measurement,setting,value
"[Cl][Cu][Cl] [CuCl2, reference compound]","catalytic ROS generation (•OH and H2O2 production, in words)",[1],highest ^•OH and H2O2 formation
same,accumulated Cu in HCT116,HCT116 cells,0.754 ± 0.010 μg/4 × 10^5 cells
